{
  "source": "patent US20260232644A1",
  "about": "“Compositions Comprising an Inhibitor of Galectin-3” (University of Liverpool, priority 2023, published 2026)",
  "key": {"Galectin-3": {"biological_target": "T1, Galectin-3 (Homo sapiens, UniProt P17931)", "T1 construct": "made in house; host or cells: E. coli", "T1 sequence (P17931 whole entry)": "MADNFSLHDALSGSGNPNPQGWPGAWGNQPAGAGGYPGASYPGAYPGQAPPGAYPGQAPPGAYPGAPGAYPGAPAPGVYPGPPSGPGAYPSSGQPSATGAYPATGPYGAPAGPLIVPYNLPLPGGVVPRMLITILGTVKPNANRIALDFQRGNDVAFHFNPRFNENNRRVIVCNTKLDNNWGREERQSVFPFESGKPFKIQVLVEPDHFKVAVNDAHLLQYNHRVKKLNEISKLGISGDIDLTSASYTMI", "assay": "Galectin-3 binding to asialofetuin (ASF) ELISA", "method": "Effect of the inhibitors on galectin binding to its ligand asialo fetuin (ASF) was measured by galectin ELISA. Nanty-six well plates were coated overnight with 20 μg/ml ASF in coating buffer (15 mM Na2CO3 17 mM NaHCO3 pH 9.6.). The wells were washed twice with PBS and incubated with blocking buffer (1% BSA in PBS) for 1 hr. The supernatants were removed and replaced with 5 μg/ml recombinant human galectin without or with different concentrations of the compound inhibitors or lactose in blocking buffer for 1 hr at room temperature. The wells were washed and incubated with 1 μg/ml anti-galectin antibody for 2 hr. Following addition of HRP-conjugated secondary antibody for 1 hr, FAST OPD development solution was added for 15-20 minutes. The reaction was terminated by addition of 4M sulphuric acid. The plates were read at 492 nm (reference wavelength 595 nm) by a microplate reader."}, "[1]": {"system": "human colon cancer SW620 cells", "assay": "Galectin-3-mediated SW620 cell adhesion to HUVECs", "type": "cell-based", "details": "Galectin-3 2 μg/ml, various concentrations", "method": "HUVEC cells at 1×10^5 cells/ml in EGM medium were seeded into 24 well plates pre-inserted with 13 mm glass coverslip. The cells were incubated at 37° C. at 5% CO2 for 24 hr for monolayer formation. AGA19+ or SW620 cell suspension (5×10^5 cells/ml in DMEM) was introduced with 5 μl/ml fluorescent cell labelling solution DiL for 30 min at 37° C. The fluorescent labelled cells were washed twice with PBS and resuspended into 1×10^5 cells/ml in DMEM. The cancer cell suspension was then introduced with galectin-3 (2 μg/ml) and various concentrations of the compound inhibitors at 37° C. for 1 hr. The wells were carefully washed twice with PBS to remove the non-adhesion cells before the cells in the wells were fixed with 2% paraformaldehyde for 10 min. The glass coverslip was carefully removed from the plate, placed on a glass slide. After addition of fluorescence mounting medium containing DAPI, fluorescence labelled cells were quantified under a fluorescence microscope."}, "vascular HUVECs": {"system": "vascular HUVECs", "assay": "LDH release cytotoxicity assay, HUVECs", "type": "cell-based, human", "experimental": "SW620 cells (5×10^4 cells/ml) were seeded into 96-well plate in DMEM (and incubated at 37° C. 5% CO2 for 24 hr. HUVECs (1.0×10^5 cells/ml) was seeded in EBM medium and incubated for 24-36 hr until they formed a monolayer. Compound inhibitors at different concentrations were then introduced to the cells (10× lysis buffer was included as maximum LDH activity control) for 24 hr. The culture medium was transferred to a new plate and was mixed with equal volume of reaction mixture provided in the kit for 30 min at room temperature before the absorbance was measured at 490 nm (reference 680 nm) by a spectrophotometer."}, "[2]": {"system": "THP-1 differentiated macrophages", "assay": "Galectin-3-induced IL-1β secretion from macrophages (ELISA)", "type": "cell-based", "details": "Galectin-3 10 μg/ml, various concentrations", "method": "Effect of the compound inhibitors on secretion of pro-inflammatory cytokines from macrophages were assessed in THP-1 monocyte differentiated macrophages. THP-1 cells were induced to differentiation into macrophages by incubation with 10 ng/ml PMA for 48 h at 37° C. The culture medium was then replaced with fresh medium without or with 10 μg/ml galectin-3 and various concentrations of the compound inhibitors for 24 h at 37° C. The culture medium was collected and the concentrations of TNFα and IL-1β in the culture medium were determined by TNFα and IL-1β ELISA."}},
  "note": "Structures can show the parent of a compound that is named as a salt.",
  "data": [
    {"smiles": "NC1CCN(c2nc3c(cc2F)c(=O)c(C(=O)O)cn3-c2ccc(F)cc2F)C1", "note": "(stereo not drawn) [Formula X, Tosufloxacin tosylate]", "values": [
      {"measurement": "Inhibition of Galectin-3 binding to its ligand asialofetuin (ASF)", "setting": "Galectin-3; Galectin-3 5 μg/ml, ASF 20 μg/ml, different concentrations of compound, ELISA", "value": "inhibit galectin-3 binding to ASF in a dose-dependent manner"},
      {"measurement": "IC50", "setting": "Galectin-3; read-out: IC50, inhibition of Galectin-3 binding to its ligand", "value": "≤ 10", "unit": "µM"},
      {"measurement": "Inhibition of SW620 cell adhesion to HUVECs", "setting": "[1]", "value": "dose-dependent inhibition"},
      {"measurement": "Cytotoxicity to HUVEC cells (LDH release)", "setting": "vascular HUVECs; at 100 μM", "value": "no detectable cytotoxicity"},
      {"measurement": "Cytotoxicity to HUVEC cells (LDH release)", "setting": "vascular HUVECs; various concentrations", "value": "low cytotoxicity"},
      {"measurement": "Inhibition of galectin-3-induced IL-1β secretion", "setting": "[2]", "value": "dose-dependent inhibition"}
    ]}
  ]
}
